Values of other authors in patent US7749527B2, “Gel compositions for control of ecto-parasites” (Wyeth LLC, priority 2005, dated 2010).

Tested on: fleas and ticks
Conditions: companion animals

N#Cc1ccc(CC(=NNC(=O)Nc2ccc(OC(F)(F)F)cc2)c2cccc(C(F)(F)F)c2)cc1 [Metaflumizone, (E Z)-2-[2-(4-cyanophenyl)-1-[3-(trifluoromethyl)phenyl]ethylidene]-N-[4-(trifluoromethoxy)phenyl]hydrazinecarboxamide]
protection from fleas and ticks: 4-6 weeks
